Laboratory results: ChEMBL document CHEMBL1143806, “Synthesis and biological evaluation of the suberoylanilide hydroxamic acid (SAHA) beta-glucuronide and beta-galactoside for application in selective prodrug chemotherapy” (Bioorg Med Chem Lett, 2007)
The source made the active and inactive calls. The calls are words filed in the database; no cut-off is given here.

Columns and labels:
NCI-H661 = assay: Antiproliferative activity against human H661 cells at 1 to 25 uM after 48 hrs; type: functional, cell-based
[1] = Stability in presence of 100 U/mL Escherichia coli beta-glucuronidase assessed as SAHA production after 7 mins; type: ADME
[2] = Stability in presence of 200 to 1000 U/mL bovine liver beta-glucuronisase assessed as SAHA production at 100 ug/mL; type: ADME; details: cattle
[3] = Stability in presence of 100 U/mL Escherichia coli beta-glucuronidase assessed as SAHA production after 30 mins; type: ADME; details: 0.5 h

Row | Structure (SMILES) | Activity (NCI-H661) | Stability [1] | Stability [2] | Stability [3]
1 | O=C(CCCCCCC(=O)Nc1ccccc1)NO[C@@H]1O[C@H](CO)[C@H](O)[C@H](O)[C@H]1O | inactive |  |  | 
2 | O=C(CCCCCCC(=O)Nc1ccccc1)NO[C@@H]1O[C@H](C(=O)O)[C@@H](O)[C@H](O)[C@H]1O | inactive | Stable | Stable | Stable
